The target of test [1] is Calcium/calmodulin-dependent protein kinase kinase 2 (Homo sapiens) (UniProt Q96RR4). Nature of the test: Binding affinity to wild-type human partial length CAMKK2 (D65 to V471 residues) expressed in bacterial expression system assessed as residual binding level at 10 uM by Kinomescan method relative to control.
Test [2] deals with Phosphatidylinositol 4,5-bisphosphate 3-kinase catalytic subunit alpha isoform (Homo sapiens), P42336 [H1047Y]. Description: Binding affinity to human partial length PIK3CA H1047Y mutant (R108 to N1068 residues) expressed in mammalian expression system assessed as residual binding level at 10 uM by Kinomescan method relative to control.
In test [3] the test system is Epidermal growth factor receptor (Homo sapiens), P00533 [L861Q]. Description: Binding affinity to human partial length EGFR L861Q mutant (R669 to V1011 residues) expressed in bacterial expression system assessed as residual binding level at 10 uM by Kinomescan method relative to control.
Test [4] concerns the target Serine/threonine-protein kinase B-raf (Homo sapiens) (UniProt P15056). Description: Binding affinity to wild-type human partial length BRAF (S429 to E741 residues) expressed in mammalian expression system assessed as residual binding level at 10 uM by Kinomescan method relative to control.
In test [5] the target is Tyrosine-protein kinase CSK (Homo sapiens) (UniProt P41240). Description: Binding affinity to wild-type human full length CSK (M1 to L450 residues) expressed in bacterial expression system assessed as residual binding level at 10 uM by Kinomescan method relative to control.
Test [6] addresses Death-associated protein kinase 3 (Homo sapiens) (UniProt O43293). Description: Binding affinity to wild-type human partial length DAPK3 (M1 to A277 residues) expressed in bacterial expression system assessed as residual binding level at 10 uM by Kinomescan method relative to control.
Test [7] deals with Mitogen-activated protein kinase kinase kinase kinase 1 (Homo sapiens) (UniProt Q92918). Description: Binding affinity to wild-type human full length HPK1 (M1 to R799 residues) expressed in bacterial expression system assessed as residual binding level at 10 uM by Kinomescan method relative to control.
The target of test [8] is Platelet-derived growth factor receptor beta (Homo sapiens) (UniProt P09619). Description: Binding affinity to wild-type human partial length PDGFRB (V582 to Y1009 residues) expressed in bacterial expression system assessed as residual binding level at 10 uM by Kinomescan method relative to control.
In test [9] the target is Serine/threonine-protein kinase 36 (Homo sapiens) (UniProt Q9NRP7). Description: Binding affinity to wild-type human partial length STK36 (M1 to T271 residues) expressed in bacterial expression system assessed as residual binding level at 10 uM by Kinomescan method relative to control.
The target in test [10] is Ribosomal protein S6 kinase alpha-6 (Homo sapiens) (UniProt Q9UK32). Description: Binding affinity to wild-type human partial length N-terminal RSK4 kinase domain 1 (M1 to E397 residues) expressed in mammalian expression system assessed as residual binding level at 10 uM by Kinomescan method relative to control.
Test [11] addresses Serine/threonine-protein kinase LATS1 (Homo sapiens) (UniProt O95835). Nature of the test: Binding affinity to wild-type human partial length LATS1 (Q678 to V1130 residues) expressed in bacterial expression system assessed as residual binding level at 10 uM by Kinomescan method relative to control.
The target in test [12] is Membrane-associated tyrosine- and threonine-specific cdc2-inhibitory kinase (Homo sapiens) (UniProt Q99640). Description: Binding affinity to wild-type human partial length PKMYT1 (A88 to G366 residues) expressed in bacterial expression system assessed as residual binding level at 10 uM by Kinomescan method relative to control.
Test [13] has as its target Mitogen-activated protein kinase kinase kinase 19 (Homo sapiens) (UniProt Q56UN5). Description: Binding affinity to wild-type human partial length YSK4 (T1019 to H1328 residues) expressed in mammalian expression system assessed as residual binding level at 10 uM by Kinomescan method relative to control.
The target in test [14] is Mast/stem cell growth factor receptor Kit (Homo sapiens) (UniProt P10721). Nature of the test: Binding affinity to wild-type human partial length KIT (I571 to D952 residues) expressed in bacterial expression system assessed as residual binding level at 10 uM by Kinomescan method relative to control.
Test [15] deals with Serine/threonine-protein kinase 25 (Homo sapiens) (UniProt O00506). Description: Binding affinity to wild-type human partial length YSK1 (V14 to H295 residues) expressed in bacterial expression system assessed as residual binding level at 10 uM by Kinomescan method relative to control.
The test system of a further test is HaCaT. Description: Cytotoxicity against human HaCaT cells assessed as growth inhibition incubated for 48 hrs by Hoechst 33342 staining based assay. Type of test: cell-based.
In test [16] the target is Protein kinase C eta type (Homo sapiens) (UniProt P24723). Description: Binding affinity to wild-type human partial length PRKCH (S324 to P683 residues) expressed in bacterial expression system assessed as residual binding level at 10 uM by Kinomescan method relative to control.
The target of test [17] is Cyclin-dependent kinase 13 (Homo sapiens) (UniProt Q14004). Description: Binding affinity to wild-type human partial length CDC2L5 (H675 to S1054 residues) expressed in mammalian expression system assessed as residual binding level at 10 uM by Kinomescan method relative to control.
Test [18] concerns Phosphatidylinositol 4,5-bisphosphate 3-kinase catalytic subunit alpha isoform (Homo sapiens), P42336 [M1043I]. Description: Binding affinity to human partial length PIK3CA M1043I mutant (R108 to N1068 residues) expressed in mammalian expression system assessed as residual binding level at 10 uM by Kinomescan method relative to control.
The target in test [19] is Ephrin type-A receptor 2 (Homo sapiens) (UniProt P29317). Description: Binding affinity to wild-type human partial length EPHA2 (T593 to V891 residues) expressed in bacterial expression system assessed as residual binding level at 10 uM by Kinomescan method relative to control.
Test [20] deals with Serine/threonine-protein kinase 3 (Homo sapiens) (UniProt Q13188). Description: Binding affinity to wild-type human partial length MST2 (D17 to E318 residues) expressed in bacterial expression system assessed as residual binding level at 10 uM by Kinomescan method relative to control.
The target in test [21] is Cyclin-dependent kinase 4/cyclin D1 (Homo sapiens) (UniProt P11802+P24385). Nature of the test: Binding affinity to wild-type human full length CDK4/cyclinD1 (M1 to E303 residues) expressed in mammalian expression system assessed as residual binding level at 10 uM by Kinomescan method relative to control.
In test [22] the target is Serine/threonine-protein kinase SBK1 (Homo sapiens) (UniProt Q52WX2). Description: Binding affinity to wild-type human partial length SBK1 (P23 to P348 residues) expressed in mammalian expression system assessed as residual binding level at 10 uM by Kinomescan method relative to control.
The target in test [23] is Mitogen-activated protein kinase kinase kinase 3 (Homo sapiens) (UniProt Q99759). Description: Binding affinity to wild-type human partial length MAP3K3 (E320 to Y626 residues) expressed in mammalian expression system assessed as residual binding level at 10 uM by Kinomescan method relative to control.

Serine/threonine-protein kinase 3 (Homo sapiens), sequence (Q13188 whole entry, the tested form may be a part): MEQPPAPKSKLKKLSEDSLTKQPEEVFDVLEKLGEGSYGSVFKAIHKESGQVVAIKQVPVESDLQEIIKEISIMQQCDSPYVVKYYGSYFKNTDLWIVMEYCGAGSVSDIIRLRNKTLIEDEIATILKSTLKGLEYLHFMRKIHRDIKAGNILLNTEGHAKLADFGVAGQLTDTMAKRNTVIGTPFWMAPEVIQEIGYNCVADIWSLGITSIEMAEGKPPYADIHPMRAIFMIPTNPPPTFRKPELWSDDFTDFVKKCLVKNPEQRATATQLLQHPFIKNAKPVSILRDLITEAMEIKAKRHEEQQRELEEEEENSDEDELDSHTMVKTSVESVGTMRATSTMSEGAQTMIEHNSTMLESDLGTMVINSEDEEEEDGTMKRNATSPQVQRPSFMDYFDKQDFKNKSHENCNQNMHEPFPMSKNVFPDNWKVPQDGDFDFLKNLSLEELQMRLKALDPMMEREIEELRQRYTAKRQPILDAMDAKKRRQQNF
Platelet-derived growth factor receptor beta (Homo sapiens), sequence (P09619 whole entry, the tested form may be a part): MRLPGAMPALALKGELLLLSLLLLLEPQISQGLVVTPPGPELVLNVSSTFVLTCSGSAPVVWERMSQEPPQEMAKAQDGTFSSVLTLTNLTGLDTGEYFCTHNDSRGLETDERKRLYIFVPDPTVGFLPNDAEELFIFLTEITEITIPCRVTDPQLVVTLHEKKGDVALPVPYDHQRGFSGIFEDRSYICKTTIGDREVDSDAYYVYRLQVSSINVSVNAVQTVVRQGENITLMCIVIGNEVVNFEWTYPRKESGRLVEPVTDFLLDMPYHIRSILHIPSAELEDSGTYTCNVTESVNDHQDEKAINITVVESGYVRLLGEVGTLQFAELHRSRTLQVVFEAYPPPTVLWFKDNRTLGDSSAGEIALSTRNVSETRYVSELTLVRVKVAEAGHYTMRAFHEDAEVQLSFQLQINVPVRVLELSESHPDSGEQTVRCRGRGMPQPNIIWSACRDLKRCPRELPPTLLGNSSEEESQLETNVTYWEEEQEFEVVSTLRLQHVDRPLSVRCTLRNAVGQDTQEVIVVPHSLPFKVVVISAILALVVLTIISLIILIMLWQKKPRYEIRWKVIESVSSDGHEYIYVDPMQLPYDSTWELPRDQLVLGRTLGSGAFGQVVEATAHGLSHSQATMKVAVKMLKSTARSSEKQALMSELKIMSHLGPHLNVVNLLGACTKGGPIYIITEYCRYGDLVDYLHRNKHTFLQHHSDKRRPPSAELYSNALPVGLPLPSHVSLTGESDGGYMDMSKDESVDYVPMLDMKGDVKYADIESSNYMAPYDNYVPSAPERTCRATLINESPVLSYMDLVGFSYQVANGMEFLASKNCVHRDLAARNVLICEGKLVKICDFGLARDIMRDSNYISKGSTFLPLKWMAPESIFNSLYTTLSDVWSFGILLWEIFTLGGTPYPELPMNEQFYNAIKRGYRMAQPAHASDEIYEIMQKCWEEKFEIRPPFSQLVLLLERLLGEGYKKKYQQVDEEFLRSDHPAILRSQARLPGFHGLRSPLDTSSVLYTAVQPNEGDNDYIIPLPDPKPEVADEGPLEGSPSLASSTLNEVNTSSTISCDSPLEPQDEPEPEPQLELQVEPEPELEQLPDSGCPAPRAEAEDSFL
Ephrin type-A receptor 2 (Homo sapiens), sequence (P29317 whole entry, the tested form may be a part): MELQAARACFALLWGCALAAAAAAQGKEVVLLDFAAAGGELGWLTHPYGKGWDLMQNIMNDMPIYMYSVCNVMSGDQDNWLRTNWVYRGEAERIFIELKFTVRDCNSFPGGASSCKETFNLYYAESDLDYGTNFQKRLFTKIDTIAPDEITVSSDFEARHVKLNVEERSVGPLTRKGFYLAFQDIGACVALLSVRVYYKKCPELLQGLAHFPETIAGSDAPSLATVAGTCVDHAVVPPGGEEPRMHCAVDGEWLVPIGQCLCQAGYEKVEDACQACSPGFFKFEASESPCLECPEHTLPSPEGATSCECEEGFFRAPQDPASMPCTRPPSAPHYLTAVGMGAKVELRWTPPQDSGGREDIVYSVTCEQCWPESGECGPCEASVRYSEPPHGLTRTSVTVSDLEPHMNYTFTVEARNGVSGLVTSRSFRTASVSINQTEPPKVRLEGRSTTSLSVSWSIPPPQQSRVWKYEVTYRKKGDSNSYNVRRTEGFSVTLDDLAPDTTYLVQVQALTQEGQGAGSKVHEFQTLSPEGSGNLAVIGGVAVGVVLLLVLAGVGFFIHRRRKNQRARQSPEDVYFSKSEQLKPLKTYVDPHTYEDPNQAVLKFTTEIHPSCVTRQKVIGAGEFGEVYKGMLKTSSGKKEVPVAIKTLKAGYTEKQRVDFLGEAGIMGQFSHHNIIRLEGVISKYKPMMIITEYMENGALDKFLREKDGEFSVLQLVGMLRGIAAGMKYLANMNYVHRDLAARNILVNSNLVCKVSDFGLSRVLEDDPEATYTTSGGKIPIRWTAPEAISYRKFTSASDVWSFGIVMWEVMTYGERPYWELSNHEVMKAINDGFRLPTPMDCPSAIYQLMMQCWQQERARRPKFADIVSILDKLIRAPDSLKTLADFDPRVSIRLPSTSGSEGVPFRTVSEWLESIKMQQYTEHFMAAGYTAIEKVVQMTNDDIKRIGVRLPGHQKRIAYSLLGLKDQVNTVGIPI
Ribosomal protein S6 kinase alpha-6 (Homo sapiens), sequence (Q9UK32 whole entry, the tested form may be a part): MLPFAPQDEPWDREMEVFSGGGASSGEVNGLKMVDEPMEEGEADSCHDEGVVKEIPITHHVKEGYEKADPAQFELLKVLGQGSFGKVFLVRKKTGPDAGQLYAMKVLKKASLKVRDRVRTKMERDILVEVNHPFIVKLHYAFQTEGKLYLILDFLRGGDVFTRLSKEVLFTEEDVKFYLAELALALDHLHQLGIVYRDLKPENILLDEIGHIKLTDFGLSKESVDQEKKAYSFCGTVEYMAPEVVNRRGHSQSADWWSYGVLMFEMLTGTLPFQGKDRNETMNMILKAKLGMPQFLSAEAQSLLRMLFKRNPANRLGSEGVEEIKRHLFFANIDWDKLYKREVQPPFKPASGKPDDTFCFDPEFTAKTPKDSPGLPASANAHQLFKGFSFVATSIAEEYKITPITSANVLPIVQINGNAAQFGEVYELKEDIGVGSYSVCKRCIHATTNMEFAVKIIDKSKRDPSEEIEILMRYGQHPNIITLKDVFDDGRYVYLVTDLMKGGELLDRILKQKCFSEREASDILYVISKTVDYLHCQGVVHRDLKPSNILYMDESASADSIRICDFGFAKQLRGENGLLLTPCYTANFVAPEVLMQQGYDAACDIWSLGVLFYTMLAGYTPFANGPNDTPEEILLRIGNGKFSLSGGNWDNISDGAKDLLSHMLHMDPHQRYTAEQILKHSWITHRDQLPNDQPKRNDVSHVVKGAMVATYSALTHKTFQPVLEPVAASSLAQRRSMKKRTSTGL
Serine/threonine-protein kinase 25 (Homo sapiens), sequence (O00506 whole entry, looked up, the tested form may be a part): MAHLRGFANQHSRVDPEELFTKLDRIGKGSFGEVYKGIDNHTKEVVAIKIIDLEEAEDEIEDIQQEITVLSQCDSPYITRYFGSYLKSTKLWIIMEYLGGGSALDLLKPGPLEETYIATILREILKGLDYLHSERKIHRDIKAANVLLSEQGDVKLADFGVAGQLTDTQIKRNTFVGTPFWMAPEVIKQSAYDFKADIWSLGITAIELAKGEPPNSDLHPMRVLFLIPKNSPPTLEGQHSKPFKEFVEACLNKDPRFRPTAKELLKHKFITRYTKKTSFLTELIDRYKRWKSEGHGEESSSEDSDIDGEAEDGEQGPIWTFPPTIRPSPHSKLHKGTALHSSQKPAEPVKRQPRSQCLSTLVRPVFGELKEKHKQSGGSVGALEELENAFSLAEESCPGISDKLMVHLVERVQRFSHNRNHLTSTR
Mitogen-activated protein kinase kinase kinase kinase 1 (Homo sapiens), sequence (Q92918 whole entry, looked up, the tested form may be a part): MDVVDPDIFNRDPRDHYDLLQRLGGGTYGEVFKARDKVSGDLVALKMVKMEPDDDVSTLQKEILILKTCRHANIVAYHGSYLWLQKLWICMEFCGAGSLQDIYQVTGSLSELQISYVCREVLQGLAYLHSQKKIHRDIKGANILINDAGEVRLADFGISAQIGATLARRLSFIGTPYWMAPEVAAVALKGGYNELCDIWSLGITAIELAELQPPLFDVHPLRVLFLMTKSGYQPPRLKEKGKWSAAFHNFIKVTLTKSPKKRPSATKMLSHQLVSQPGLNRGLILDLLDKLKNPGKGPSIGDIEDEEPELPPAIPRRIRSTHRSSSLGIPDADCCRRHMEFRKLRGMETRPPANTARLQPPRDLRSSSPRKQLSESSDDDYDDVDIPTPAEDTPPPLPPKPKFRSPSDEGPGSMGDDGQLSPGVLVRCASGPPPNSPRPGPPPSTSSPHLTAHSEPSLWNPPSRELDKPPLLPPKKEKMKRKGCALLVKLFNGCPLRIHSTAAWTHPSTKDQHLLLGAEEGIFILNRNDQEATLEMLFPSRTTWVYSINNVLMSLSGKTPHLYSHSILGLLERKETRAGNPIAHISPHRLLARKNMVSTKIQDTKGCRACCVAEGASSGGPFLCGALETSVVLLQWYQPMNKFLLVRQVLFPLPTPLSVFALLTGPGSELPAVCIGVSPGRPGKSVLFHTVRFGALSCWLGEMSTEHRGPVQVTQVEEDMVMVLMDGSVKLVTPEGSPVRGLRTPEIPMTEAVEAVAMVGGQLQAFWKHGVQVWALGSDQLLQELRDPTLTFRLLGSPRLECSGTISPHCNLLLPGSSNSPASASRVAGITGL
Death-associated protein kinase 3 (Homo sapiens), sequence (O43293 whole entry, looked up, the tested form may be a part): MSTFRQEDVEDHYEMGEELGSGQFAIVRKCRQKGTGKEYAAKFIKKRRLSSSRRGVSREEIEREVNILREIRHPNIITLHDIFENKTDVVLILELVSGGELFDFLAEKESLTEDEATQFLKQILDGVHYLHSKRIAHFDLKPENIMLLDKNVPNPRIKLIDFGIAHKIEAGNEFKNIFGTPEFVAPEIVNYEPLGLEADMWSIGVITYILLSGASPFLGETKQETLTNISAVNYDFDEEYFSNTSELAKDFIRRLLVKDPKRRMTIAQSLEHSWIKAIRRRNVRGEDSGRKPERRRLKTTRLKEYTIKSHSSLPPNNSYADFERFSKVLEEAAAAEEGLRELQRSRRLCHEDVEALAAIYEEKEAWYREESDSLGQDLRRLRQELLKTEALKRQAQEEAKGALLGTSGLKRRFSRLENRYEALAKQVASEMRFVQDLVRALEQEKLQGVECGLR

On to `O=C(Nc1cc(-c2cn(CCNc3c4c(nc5ccccc35)CCCC4)nn2)ccn1)Nc1cccc2c1C1CCCCN1C2=O` (racemic), for which the Activity turned out to be 18% in [1]; 86% in [2]; 67% in [3]; 51% in test [4]; 77% in test [5]; 66% in [6]. Besides, the Activity was determined as 12% in [7]; 2.3% in test [8]; 9.1% in test [9]; 2.2% in test [10]; 90% in test [11]; 90% in test [12]. For the same molecule, the Activity is 8.5% in test [13]; 0.25% in test [14]; 54% in [15]; 3.9% in [16]; 0.61% in test [17]; 100% in [18]. Moreover, the Activity came to 91% in test [19]; 21% in test [20]; 1.1% in [21]; 30% in test [22]; 22% in [23]. In addition, the IC50 (usually the concentration that inhibits the measured activity by half) in the test with HaCaT turned out to be 5 µM.

These data come from ChEMBL document CHEMBL4390652, “Design, biological evaluation and X-ray crystallography of nanomolar multifunctional ligands targeting simultaneously acetylcholinesterase and glycogen synthase kinase-3” (Eur J Med Chem, 2019).
